The structures appear in SMILES notation. In brackets after ≈: the same amount, converted by molar mass. Counter-ions that a name gives are not always drawn.

Data set [1] in a line: Solubility in simulated biological media (37° C., HPLC). In kind it is physicochemical. To be noted: for Solubility compared with the solubility of the free base: simulated biological media. How it is done:
(§1) Procedure: About 10 mg of amorphous free base was weighed and placed in a 2 mL glass vial. Then, 1 mL of simulated biological media (simulated artificial gastric juice, simulated artificial intestinal juice-fasting, and simulated artificial intestinal juice-satiety), and a magnetic stirrer were added, and then the vial was sealed. The mixture was magnetically stirred at 37° C. and about 0.4 mL of the sample was taken at different time points. The mixture was filtered with a centrifuge tube (pore size of filter membrane: 0.45 μm), the filtrate was taken and the content of the compound of formula I therein was analyzed by HPLC.
as §1, with “crystal form I of” for “amorphous”, “vial,” for “vial. Then,”, “was” for “were”, “added,” for “added, and”
as §1, with “crystal form of the” for “amorphous”, “and” for “and then”
as §1, with “crystal form I of a phosphate salt” for “amorphous free base”, “(simulated is” for “(simulated”
as §1, with “crystal form III of the mesylate salt” for “amorphous free base”
as §1, with “crystal form III of the 1,5-naphthalenedisulfonate salt” for “amorphous free base”

A short description of data set [2]: Accelerated stability test (HPLC purity, crystal form). To be noted: for Purity ratio: purity after test / initial purity. It is filed as physicochemical. How it is done: The accelerated stability test of crystal form III of the mesylate salt was used for researching the physical and chemical stability of crystal form III of the mesylate salt. Specific procedure: After the sample was placed in an accelerated stability for a sufficient time under the conditions shown in the table below, the sample was taken out and dissolved in the mobile phase, and then its purity was determined by HPLC. Before the start of the accelerated stability test, the purity of the initial sample was determined by HPLC. The ratio of the purity of the sample after the accelerated stability test to the purity of the initial sample was used as a stability criterion. If the ratio was less than 95% purity, the sample was considered as unstable.

A short description of data set [3]: Bioavailability in dog after single administration by gavage. It is filed as in vivo. Conditions: 5 mg/kg. Here is the method: It could be seen from FIG. 21 that the bioavailability of crystal form III of the mesylate salt was increased by 5 times in comparison to form I of the free base. Experimental conditions: the experimental animal was a dog, a dose of 5 mg/kg, single administration by gavage. Therefore, the salt-form compound has a significant improvement in comparison to the free base.

[4] abbreviates: simulated artificial gastric juice.
Setting [5] is: simulated artificial intestinal juice-fasting.
Where [6] appears, read: simulated artificial intestinal juice-satiety.
[7] abbreviates: 40° C./75% relative humidity, 1 week.

For `CN1C(=O)COc2c1cnc1ccc(Sc3nnc4c(F)cc(-c5cnn(C)c5)cn34)cc21` [Amorphous free base, 9-((8-fluoro-6-(1-methyl-1H-pyrazol-4-yl)-[1,2,4]triazolo[4,3-a]pyridin-3-yl)thio)-4-methyl-2H-[1,4]oxazino[3,2-c]quinolin-3(4H)-one], in data set [1] (setting [4]), the “Solubility (1 hour)” value was 11 µg/mL (≈ 23.8 µM), the “Solubility (4 hours)” value was 9 µg/mL (≈ 19.5 µM) and the “Solubility (22 hours)” value was 9 µg/mL (≈ 19.5 µM). In addition, in data set [1] (setting [5]), the “Solubility (1 hour)” value was 2 µg/mL (≈ 4.33 µM), the “Solubility (4 hours)” value was 2 µg/mL (≈ 4.33 µM) and the “Solubility (22 hours)” value is 2 µg/mL (≈ 4.33 µM). In data set [1] (setting [6]), the “Solubility (1 hour)” value was 3 µg/mL (≈ 6.5 µM), the “Solubility (4 hours)” value was 2 µg/mL (≈ 4.33 µM) and the “Solubility (22 hours)” value is 2 µg/mL (≈ 4.33 µM).

Turning to `CN1C(=O)COc2c1cnc1ccc(Sc3nnc4c(F)cc(-c5cnn(C)c5)cn34)cc21` [Crystal form I of free base, 9-((8-fluoro-6-(1-methyl-1H-pyrazol-4-yl)-[1,2,4]triazolo[4,3-a]pyridin-3-yl)thio)-4-methyl-2H-[1,4]oxazino[3,2-c]quinolin-3(4H)-one], in data set [1] (setting [4]), the “Solubility (1 hour)” value was 18 µg/mL (≈ 39 µM), the “Solubility (4 hours)” value is 19 µg/mL (≈ 41.2 µM) and the “Solubility (22 hours)” value is 19 µg/mL (≈ 41.2 µM). Moreover, in data set [1] (setting [5]), the “Solubility (1 hour)” value is 1 µg/mL (≈ 2.17 µM), the “Solubility (4 hours)” value was 1 µg/mL (≈ 2.17 µM) and the “Solubility (22 hours)” value is 2 µg/mL (≈ 4.33 µM). In addition, in data set [1] (setting [6]), the “Solubility (1 hour)” value was 4 µg/mL (≈ 8.67 µM), the “Solubility (4 hours)” value was 4 µg/mL (≈ 8.67 µM) and the “Solubility (22 hours)” value is 4 µg/mL (≈ 8.67 µM).

For `CN1C(=O)COc2c1cnc1ccc(Sc3nnc4c(F)cc(-c5cnn(C)c5)cn34)cc21` [Crystal form I of phosphate, 9-((8-fluoro-6-(1-methyl-1H-pyrazol-4-yl)-[1,2,4]triazolo[4,3-a]pyridin-3-yl)thio)-4-methyl-2H-[1,4]oxazino[3,2-c]quinolin-3(4H)-one], in data set [1] (setting [4]), the “Solubility (1 hour)” value is 128 µg/mL, the “Solubility (4 hours)” value was 135 µg/mL and the “Solubility (22 hours)” value is 135 µg/mL. In addition, in data set [1] (setting [5]), the “Solubility (1 hour)” value was 8 µg/mL, the “Solubility (4 hours)” value was 4 µg/mL and the “Solubility (22 hours)” value was 3 µg/mL. Further, in data set [1] (setting [6]), the “Solubility (1 hour)” value is 32 µg/mL, the “Solubility (4 hours)” value was 33 µg/mL and the “Solubility (22 hours)” value was 27 µg/mL. Also, the “Solubility compared with the solubility of the free base” value in data set [1] is “much greater”.

As for `CN1C(=O)COc2c1cnc1ccc(Sc3nnc4c(F)cc(-c5cnn(C)c5)cn34)cc21` [Crystal form III of free base, 9-((8-fluoro-6-(1-methyl-1H-pyrazol-4-yl)-[1,2,4]triazolo[4,3-a]pyridin-3-yl)thio)-4-methyl-2H-[1,4]oxazino[3,2-c]quinolin-3(4H)-one], in data set [1] (setting [4]), the “Solubility (1 hour)” value is 40 µg/mL (≈ 86.7 µM), the “Solubility (4 hours)” value is 43 µg/mL (≈ 93.2 µM) and the “Solubility (22 hours)” value is 43 µg/mL (≈ 93.2 µM). Also, in data set [1] (setting [5]), the “Solubility (1 hour)” value is 4 µg/mL (≈ 8.67 µM), the “Solubility (4 hours)” value was 4 µg/mL (≈ 8.67 µM) and the “Solubility (22 hours)” value is 4 µg/mL (≈ 8.67 µM). Also, in data set [1] (setting [6]), the “Solubility (1 hour)” value is 11 µg/mL (≈ 23.8 µM), the “Solubility (4 hours)” value is 11 µg/mL (≈ 23.8 µM) and the “Solubility (22 hours)” value is 10 µg/mL (≈ 21.7 µM).

Regarding `CN1C(=O)COc2c1cnc1ccc(Sc3nnc4c(F)cc(-c5cnn(C)c5)cn34)cc21` [Crystal form III of mesylate, 9-((8-fluoro-6-(1-methyl-1H-pyrazol-4-yl)-[1,2,4]triazolo[4,3-a]pyridin-3-yl)thio)-4-methyl-2H-[1,4]oxazino[3,2-c]quinolin-3(4H)-one], the “Crystal transformation after the accelerated stability test” value in data set [2] (setting [7]) is “No”; in data set [2] (80° C., 1 day), “No”. Besides, the “Purity after the accelerated stability test” value in data set [2] (40° C./75% relative humidity, 1 week, initial purity 98.2%) is 98.8%; in data set [2] (80° C., 1 day, initial purity 99.9%), 99.7%. Also, the Purity ratio in data set [2] (setting [7]) is listed as 100.6%; in data set [2] (80° C., 1 day), 99.8%. Also, the “Physical and chemical stability” value in data set [2] (80° C. 1 day and 40° C./75% relative humidity 1 week) is “good physical and chemical stability”. For the same compound, the “Increase of bioavailability in comparison to form I of the free base” value in data set [3] is reported as 5 times. In addition, the “Solubility (1 hour)” value in data set [1] (setting [4]) is 211 µg/mL; in data set [1] (setting [5]), 5 µg/mL; in data set [1] (setting [6]), 20 µg/mL. Besides, the “Solubility (4 hours)” value in data set [1] (setting [4]) is 200 µg/mL; in data set [1] (setting [5]), 5 µg/mL; in data set [1] (setting [6]), 14 µg/mL. The “Solubility (22 hours)” value in data set [1] (setting [4]) is 12.5 µg/mL; in data set [1] (setting [5]) it was 5 µg/mL; in data set [1] (setting [6]), 10 µg/mL. Besides, the “Solubility compared with the solubility of the free base” value in data set [1] is “much greater”.

As for `CN1C(=O)COc2c1cnc1ccc(Sc3nnc4c(F)cc(-c5cnn(C)c5)cn34)cc21` [Crystal form III of the 1,5-naphthalenedisulfonate salt] [9-((8-fluoro-6-(1-methyl-1H-pyrazol-4-yl)-[1,2,4]triazolo[4,3-a]pyridin-3-yl)thio)-4-methyl-2H-[1,4]oxazino[3,2-c]quinolin-3(4H)-one], in data set [1] (setting [4]), the “Solubility (1 hour)” value was 182 µg/mL, the “Solubility (4 hours)” value is 27 µg/mL and the “Solubility (22 hours)” value is 30 µg/mL. Further, in data set [1] (setting [5]), the “Solubility (1 hour)” value is 12 µg/mL, the “Solubility (4 hours)” value was 10 µg/mL and the “Solubility (22 hours)” value was 5 µg/mL. Further, in data set [1] (setting [6]), the “Solubility (1 hour)” value was 48 µg/mL, the “Solubility (4 hours)” value was 33 µg/mL and the “Solubility (22 hours)” value is 13 µg/mL. In addition, the “Solubility compared with the solubility of the free base” value in data set [1] is “much greater”.
